From patent US10383880B2 (Reset Therapeutics, Inc., priority 2012, dated 2019)

Each molecule was assayed on Per2-dLuc U2OS reporter cells (assay: Per2 assay for evaluating the potency of test compounds (high-throughput circadian assay)). Conditions: Homo sapiens, U2OS, stable U2OS reporter cells harboring Per2-dLuc; luminescence monitored over 4-5 days at 35° C.
Assay type: cell-based
Method: Compounds were screened by using a high-throughput circadian assay system as previously described in Zhang, E. E. et al. Cell, 2009, 139, 199-210. In brief, stable U2OS reporter cells harboring Per2-dLuc were plated at a density of 8,000 cells/well in Corning 96-well, solid white, flat bottom, TC-treated microplates (Corning®), and incubated for 24 hours at 37° C. in the presence of 5% CO2. The cells were then synchronized by serum shock by media exchange to a minimal explant media (10 mM HEPES (pH 7.0), 2% B27, 1×PSG (Invitrogen®), and 1.0 mM beetle luciferin (Promega®)) followed by the addition of the compounds of formula I dissolved in dimethylsulfoxide (0.5% final dimethylsulfoxide concentration). Gene expression was monitored by measuring luminescence (TecanR M200) over 4-5 days at 35° C. The period, amplitude, and phase of the associated circadian rhythms were determined using Multicycle™ software (Actimetrics, Inc). EC50 values of the compounds of formula I were calculated using Graphpad™ (Prism®).
`CC(O)(CN(C1(C)CCCC1)S(C)(=O)=O)Cn1c2ccc(F)cc2c2cc(F)ccc21` (centres unmarked) [Compound 197, N-(3-(3,6-Difluoro-9H-carbazol-9-yl)-2-hydroxy-2-methylpropyl)-N-(1-methylcyclopentyl)methanesulfonamide] gave an EC50 of 873 nM. `COC1CCCC(N(CC(O)Cn2c3ccccc3c3ccccc32)S(C)(=O)=O)C1` (centres unmarked) [Compound 139, N-(3-(9H-Carbazol-9-yl)-2-hydroxypropyl)-N-(3-methoxycyclohexyl)methanesulfonamide] gave an EC50 of 263 nM. `CC(C)S(=O)(=O)N(Cc1ccco1)CC(O)Cn1c2ccccc2c2ccccc21` (centres unmarked) [Compound 82, N-(3-(9H-Carbazol-9-yl)-2-hydroxypropyl)-N-(furan-2-ylmethyl)propane-2-sulfonamide] showed an EC50 of 158 nM. In the case of `CC(O)(CN(C1CCC1)S(C)(=O)=O)Cn1c2ccc(F)cc2c2cc(F)ccc21` (centres unmarked) [Compound 149, N-Cyclobutyl-N-(3-(3,6-difluoro-9H-carbazol-9-yl)-2-hydroxy-2-methylpropyl)methanesulfonamide], the EC50 is reported as 7620 nM. For `CS(=O)(=O)N(CC(O)Cn1c2ccccc2c2ccccc21)CC1CCCCC1` (centres unmarked) [Compound 52, N-(3-(9H-Carbazol-9-yl)-2-hydroxypropyl)-N-(cyclohexylmethyl)methanesulfonamide], the EC50 was 306 nM. `CC(C)N(CC(C)(O)Cn1c2ccc(F)cc2c2cc(F)ccc21)S(C)(=O)=O` (centres unmarked) [Compound 150, N-(3-(3,6-Difluoro-9H-carbazol-9-yl)-2-hydroxy-2-methylpropyl)-N-isopropylmethanesulfonamide] showed an EC50 of 5050 nM. For `CS(=O)(=O)N(CC(O)Cn1c2ccc(F)cc2c2cc(F)ccc21)c1ccc(C2CCC2)cc1` (centres unmarked) [Compound 211, N-(4-Cyclobutylphenyl)-N-(3-(3,6-difluoro-9H-carbazol-9-yl)-2-hydroxypropyl)methanesulfonamide], the EC50 was 9240 nM. With `CC(O)(CN1CCCN(C2CCCC2)S1(=O)=O)Cn1c2ccc(F)cc2c2cc(F)ccc21` (centres unmarked) [Compound 221, 2-(3-(3,6-Difluoro-9H-carbazol-9-yl)-2-hydroxy-2-methylpropyl)-6-cyclopentyl-1,2,6-thiadiazinane-1,1-dioxide] the EC50 was 5520 nM. `CC(C)N(CC(O)Cn1c2ccc(F)cc2c2ccc(F)cc21)S(C)(=O)=O` (centres unmarked) [Compound 165, N-(3-(2,6-Difluoro-9H-carbazol-9-yl)-2-hydroxypropyl)-N-isopropylmethanesulfonamide] gave an EC50 of 95 nM. Work on `CC1(N(CC(O)Cn2c3ccc(F)cc3c3cc(F)ccc32)S(C)(=O)=O)CC1` (centres unmarked) [Compound 188, N-(3-(3,6-Difluoro-9H-carbazol-9-yl)-2-hydroxypropyl)-N-(1-methylcyclopropyl)methanesulfonamide] yielded an EC50 of 147 nM. `COCCN(CC(O)Cn1c2cc(F)ccc2c2ccc(F)cc21)S(C)(=O)=O` (centres unmarked) [Compound 95, N-(3-(2,7-Difluoro-9H-carbazol-9-yl)-2-hydroxypropyl)-N-(2-methoxyethyl)methanesulfonamide] showed an EC50 of 2740 nM. Molecule `CS(=O)(=O)N(CC(O)Cn1c2ccccc2c2ccccc21)c1ccc(F)cc1` (centres unmarked) [Compound 24, N-(3-(9H-Carbazol-9-yl)-2-hydroxypropyl)-N-(4-fluorophenyl)methanesulfonamide] has an EC50 of 210 nM. `CS(=O)(=O)NCC(O)Cn1c2cc(F)ccc2c2ccc(F)cc21` (centres unmarked) [Compound 162, N-(3-(2,7-Difluoro-9H-carbazol-9-yl)-2-hydroxypropyl)methanesulfonamide] gave an EC50 of 1990 nM. `O=S1(=O)CCCCN1CC(O)Cn1c2ccccc2c2ccccc21` (centres unmarked) [Compound 33, N-(3-(9H-Carbazol-9-yl)-2-hydroxypropyl)-1,2-thiazinane 1,1-dioxide] was tested, and the EC50 was 35 nM. For `O=S1(=O)NCCCN1CC(O)Cn1c2ccc(F)cc2c2cc(F)ccc21` (centres unmarked) [Compound 171, 2-(3-(3,6-Difluoro-9H-carbazol-9-yl)-2-hydroxypropyl)-1,2,6-thiadiazinane-1,1-dioxide], the EC50 was 25 nM. `COC1CCCC(N(CC(O)Cn2c3ccc(F)cc3c3cc(F)ccc32)S(C)(=O)=O)C1` (centres unmarked) [Compound 198, N-(3-(3,6-Difluoro-9H-carbazol-9-yl)-2-hydroxypropyl)-N-(3-methoxycyclohexyl)methanesulfonamide] showed an EC50 of 1230 nM. With `O=S(=O)(CC(F)F)N(Cc1ccco1)CC(O)Cn1c2ccccc2c2ccccc21` (centres unmarked) [Compound 8, N-(3-(9H-Carbazol-9-yl)-2-hydroxypropyl)-2,2-difluoro-N-(furan-2-ylmethyl)ethanesulfonamide] the EC50 was 6960 nM. Molecule `CC1CN(CC(O)Cn2c3ccc(F)cc3c3cc(F)ccc32)S(=O)(=O)C1` (centres unmarked) [Compound 194, 2-(3-(3,6-Difluoro-9H-carbazol-9-yl)-2-hydroxypropyl)-4-methylisothiazolidine-1,1-dioxide] has an EC50 of 78 nM. `CC(C)N1CCN(CC(O)Cn2c3ccc(F)cc3c3cc(F)ccc32)S1(=O)=O` (centres unmarked) [Compound 224] was tested, and the EC50 was 59 nM. `O=S1(=O)N(CC(O)Cn2c3ccc(F)cc3c3cc(F)ccc32)CCN1C1CCCCC1` (centres unmarked) [Compound 233] showed an EC50 of 418 nM. `CN(CC(O)Cn1c2cc(F)ccc2c2c(F)cccc21)S(C)(=O)=O` (centres unmarked) [Compound 98, N-(3-(2,5-Difluoro-9H-carbazol-9-yl)-2-hydroxypropyl)-N-methylmethanesulfonamide] gave an EC50 of 8100 nM. `O=S1(=O)CCCN1CC(O)Cn1c2ccc(F)cc2c2ccc(F)cc21` (centres unmarked) [Compound 101, N-(3-(2,6-Difluoro-9H-carbazol-9-yl)-2-hydroxypropyl)-isothiazolidine-1,1-dioxide] gave an EC50 of 50 nM. In the case of `CCS(=O)(=O)N(Cc1ccco1)CC(O)Cn1c2ccccc2c2ccccc21` (centres unmarked) [Compound 2, N-(3-(9H-Carbazol-9-yl)-2-hydroxypropyl)-N-(furan-2-ylmethyl)ethanesulfonamide], the EC50 is reported as 742 nM. `O=S(=O)(C1CC1)N(Cc1ccco1)CC(O)Cn1c2ccccc2c2ccccc21` (centres unmarked) [Compound 16, N-(3-(9H-Carbazol-9-yl)-2-hydroxypropyl)-N-(furan-2-ylmethyl)cyclopropanesulfonamide] gave an EC50 of 1670 nM. For `CCN(CC(O)Cn1c2ccc(F)cc2c2ccc(F)cc21)S(C)(=O)=O` (centres unmarked) [Compound 164, N-(3-(2,6-Difluoro-9H-carbazol-9-yl)-2-hydroxypropyl)-N-ethylmethanesulfonamide], the EC50 was 200 nM. Molecule `CS(=O)(=O)CCN(CC(O)Cn1c2ccccc2c2ccccc21)S(C)(=O)=O` (centres unmarked) [Compound 55, N-(3-(9H-Carbazol-9-yl)-2-hydroxypropyl)-N-(2-(methylsulfonyl)ethyl)methanesulfonamide] has an EC50 of 2310 nM. In the case of `COCCN(CC(O)Cn1c2ccccc2c2ccccc21)S(C)(=O)=O` (centres unmarked) [Compound 30, N-(3-(9H-Carbazol-9-yl)-2-hydroxypropyl)-N-(2-methoxyethyl)methanesulfonamide], the EC50 is reported as 390 nM. Molecule `COC1CN(CC(O)Cn2c3ccc(F)cc3c3cc(F)ccc32)S(=O)(=O)C1` (centres unmarked) [Compound 181, 2-(3-(3,6-Difluoro-9H-carbazol-9-yl)-2-hydroxypropyl)-4-methoxyisothiazolidine-1,1-dioxide] has an EC50 of 174 nM. Work on `CS(=O)(=O)N(CC(O)Cn1c2ccccc2c2ccccc21)C1(C(F)(F)F)CCC1` (centres unmarked) [Compound 146, N-(3-(9H-Carbazol-9-yl)-2-hydroxypropyl)-N-(1-(trifluoromethyl)cyclobutyl)methanesulfonamide] yielded an EC50 of 1160 nM. In the case of `CS(=O)(=O)N(CC(O)Cn1c2cc(F)ccc2c2ccc(F)cc21)C1CC1` (centres unmarked) [Compound 161, N-Cyclopropyl-N-(3-(2,7-difluoro-9H-carbazol-9-yl)-2-hydroxypropyl)methanesulfonamide], the EC50 is reported as 1140 nM. For `CS(=O)(=O)N(CC(O)Cn1c2ccccc2c2ccccc21)c1ccc2[nH]ccc2c1` (centres unmarked) [Compound 76, N-(3-(9H-Carbazol-9-yl)-2-hydroxypropyl)-N-(1H-indol-5-yl)methanesulfonamide], the EC50 was 2180 nM. Molecule `CN(CC(O)Cn1c2cc(F)ccc2c2ccc(F)cc21)S(C)(=O)=O` (centres unmarked) [Compound 94, N-(3-(2,7-Difluoro-9H-carbazol-9-yl)-2-hydroxypropyl)-N-methylmethanesulfonamide] has an EC50 of 3450 nM. `CCN(CC(O)Cn1c2cc(F)ccc2c2ccc(F)cc21)S(C)(=O)=O` (centres unmarked) [Compound 158, N-(3-(2,7-Difluoro-9H-carbazol-9-yl)-2-hydroxypropyl)-N-ethylmethanesulfonamide] was tested, and the EC50 was 811 nM. `O=S1(=O)CCCCN1CC(O)Cn1c2cc(F)ccc2c2c(F)cccc21` (centres unmarked) [Compound 96, N-(3-(2,5-Difluoro-9H-carbazol-9-yl)-2-hydroxypropyl)-1,2-thiazinane 1,1-dioxide] was tested, and the EC50 was 456 nM. `CC(=O)Nc1ccc(N(CC(O)Cn2c3ccccc3c3ccccc32)S(C)(=O)=O)cc1` (centres unmarked) [Compound 29, N-(4-(N-(3-(9H-Carbazol-9-yl)-2-hydroxypropyl)methylsulfonamido)phenyl)acetamide] showed an EC50 of 710 nM. `CS(=O)(=O)N(CC(O)Cn1c2ccccc2c2ccccc21)c1ccc(C#N)cc1` (centres unmarked) [Compound 80, N-(3-(9H-Carbazol-9-yl)-2-hydroxypropyl)-N-(4-cyanophenyl)methanesulfonamide] showed an EC50 of 4220 nM. Molecule `CS(=O)(=O)N(CC(O)Cn1c2ccccc2c2ccccc21)C1CCCC(F)(F)C1` (centres unmarked) [Compound 134, N-(3-(9H-Carbazol-9-yl)-2-hydroxypropyl)-N-(3,3-difluorocyclohexyl)methanesulfonamide] has an EC50 of 1080 nM.

Same assay, conditions: stable U2OS reporter cells harboring Per2-dLuc; luminescence monitored over 4-5 days at 35° C.
`CC1CCCC1N(CC(O)Cn1c2ccc(F)cc2c2cc(F)ccc21)S(C)(=O)=O` (single isomer, unassigned) [Compound 193B, N-(3-(3,6-Difluoro-9H-carbazol-9-yl)-2-hydroxypropyl)-N-(2-methylcyclopentyl)methanesulfonamide] was tested, and the EC50 was 654 nM.
